Structures can show the parent of a compound that is named as a salt.
How the values were obtained:
Androgen Receptor = target: T1, Androgen Receptor (Homo sapiens, UniProt P10275, T878A); test: Androgen Receptor Degradation Assay (Nano-Glo HiBiT); format: cell-based; settings: LNCaP, 18 h, HiBiT-tagged AR in human LnCaP cells, read-out: mean asymptote max
T1 construct: the AR gene was modified, using CRISPR/Cas9 editing, so the expressed AR protein included an 11 amino acid HiBiT tag; endogenous in cells; host or cells: clonal LnCaP-derived line, AR gene edited by CRISPR/Cas9
T1 sequence (P10275 whole entry T878A): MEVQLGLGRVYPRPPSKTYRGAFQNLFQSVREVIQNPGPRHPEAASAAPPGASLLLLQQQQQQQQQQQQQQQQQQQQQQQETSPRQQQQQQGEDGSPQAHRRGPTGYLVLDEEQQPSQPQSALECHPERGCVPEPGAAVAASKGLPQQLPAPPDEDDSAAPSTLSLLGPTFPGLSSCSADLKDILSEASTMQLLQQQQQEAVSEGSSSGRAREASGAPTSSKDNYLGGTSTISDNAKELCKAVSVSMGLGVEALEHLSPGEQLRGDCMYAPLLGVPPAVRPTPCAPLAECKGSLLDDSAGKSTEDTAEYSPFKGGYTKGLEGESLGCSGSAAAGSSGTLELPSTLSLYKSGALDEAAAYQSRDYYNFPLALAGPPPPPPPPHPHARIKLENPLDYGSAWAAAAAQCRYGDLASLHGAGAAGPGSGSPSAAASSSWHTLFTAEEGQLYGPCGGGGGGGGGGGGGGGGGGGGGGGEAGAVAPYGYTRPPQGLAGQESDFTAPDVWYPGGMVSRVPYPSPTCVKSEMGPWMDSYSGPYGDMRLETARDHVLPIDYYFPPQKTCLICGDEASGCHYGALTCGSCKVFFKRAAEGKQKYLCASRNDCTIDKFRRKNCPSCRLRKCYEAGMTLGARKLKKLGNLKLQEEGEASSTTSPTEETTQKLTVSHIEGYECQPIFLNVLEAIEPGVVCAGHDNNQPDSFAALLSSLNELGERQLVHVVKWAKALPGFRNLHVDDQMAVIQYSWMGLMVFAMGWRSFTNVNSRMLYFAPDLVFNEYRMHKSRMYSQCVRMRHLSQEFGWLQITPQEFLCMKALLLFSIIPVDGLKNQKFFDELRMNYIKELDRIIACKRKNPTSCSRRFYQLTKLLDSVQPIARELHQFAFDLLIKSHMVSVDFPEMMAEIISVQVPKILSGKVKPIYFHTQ
T1 sequence (Q96SW2 whole entry partner): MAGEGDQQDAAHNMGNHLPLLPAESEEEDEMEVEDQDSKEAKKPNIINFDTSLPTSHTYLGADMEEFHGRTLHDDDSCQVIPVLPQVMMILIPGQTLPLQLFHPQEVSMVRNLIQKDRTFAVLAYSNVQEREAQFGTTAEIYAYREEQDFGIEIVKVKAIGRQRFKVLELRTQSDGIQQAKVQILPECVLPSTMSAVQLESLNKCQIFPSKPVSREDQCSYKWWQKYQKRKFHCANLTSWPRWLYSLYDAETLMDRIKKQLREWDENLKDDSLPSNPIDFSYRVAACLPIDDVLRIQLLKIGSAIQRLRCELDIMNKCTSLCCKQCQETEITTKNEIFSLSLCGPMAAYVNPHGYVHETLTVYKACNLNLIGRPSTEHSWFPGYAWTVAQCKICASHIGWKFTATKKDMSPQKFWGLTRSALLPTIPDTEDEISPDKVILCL
T1 sequence (Q16531 whole entry partner): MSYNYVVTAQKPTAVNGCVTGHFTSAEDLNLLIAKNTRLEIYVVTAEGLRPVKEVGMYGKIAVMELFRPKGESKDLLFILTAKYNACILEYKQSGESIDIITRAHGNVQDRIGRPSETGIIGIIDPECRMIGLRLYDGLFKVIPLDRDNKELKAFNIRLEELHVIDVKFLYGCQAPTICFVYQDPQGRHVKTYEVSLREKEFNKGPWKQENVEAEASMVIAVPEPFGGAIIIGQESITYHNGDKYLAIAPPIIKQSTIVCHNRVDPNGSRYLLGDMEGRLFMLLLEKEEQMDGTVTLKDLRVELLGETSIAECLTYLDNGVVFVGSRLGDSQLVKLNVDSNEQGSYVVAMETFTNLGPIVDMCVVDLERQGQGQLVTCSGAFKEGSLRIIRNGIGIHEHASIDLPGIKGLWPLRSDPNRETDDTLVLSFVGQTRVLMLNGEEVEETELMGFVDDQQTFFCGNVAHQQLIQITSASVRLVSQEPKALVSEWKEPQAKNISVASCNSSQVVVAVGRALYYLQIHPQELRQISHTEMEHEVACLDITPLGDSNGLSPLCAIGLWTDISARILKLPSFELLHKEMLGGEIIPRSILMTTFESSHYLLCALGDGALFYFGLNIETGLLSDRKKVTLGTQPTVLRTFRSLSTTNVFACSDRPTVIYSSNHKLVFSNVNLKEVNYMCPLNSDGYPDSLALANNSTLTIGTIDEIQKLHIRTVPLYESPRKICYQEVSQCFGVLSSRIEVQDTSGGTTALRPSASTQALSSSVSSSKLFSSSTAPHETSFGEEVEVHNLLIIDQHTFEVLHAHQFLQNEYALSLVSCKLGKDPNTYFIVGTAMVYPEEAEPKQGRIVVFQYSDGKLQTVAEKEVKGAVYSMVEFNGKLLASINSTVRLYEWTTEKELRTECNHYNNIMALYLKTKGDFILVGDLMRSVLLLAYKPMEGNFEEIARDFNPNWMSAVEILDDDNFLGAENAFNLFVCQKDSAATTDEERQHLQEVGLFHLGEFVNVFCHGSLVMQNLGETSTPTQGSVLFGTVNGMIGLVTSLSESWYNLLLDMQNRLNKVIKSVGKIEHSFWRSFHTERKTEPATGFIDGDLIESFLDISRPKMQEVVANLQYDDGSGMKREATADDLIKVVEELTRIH
Outline: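 LnCaP cells with CRISPR-knocked-in N-terminal HiBiT-tagged AR (10,000/well) treated 18 h at 37 °C with PROTACs over 11 threefold concentrations; lytic HiBiT luminescence normalised to DMSO (0%) and cell-free (100%) controls. Relative DC50 = 4-parameter fit inflection; absolute DC50 = 50% degradation interpolation; Dmax = maximum observed degradation.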

[1] = target: T2, Androgen Receptor dual T878A/L702H mutant protein (Homo sapiens, UniProt P10275, L702H/T878A); test: Dual Mutant (T878A/L702H) Androgen Receptor Degradation Assay (HTRF); format: cell-based; settings: MDA-PCa-2b, 18 h, human MDA PCa 2b cells, read-out: mean asymptote max
T2 construct: Androgen Receptor dual T878A/L702H mutant protein in human MDA PCa 2b (ATCC, #CRL-2422) cells; host or cells: MDA PCa 2b
T2 sequence (P10275 1-920 L702H/T878A): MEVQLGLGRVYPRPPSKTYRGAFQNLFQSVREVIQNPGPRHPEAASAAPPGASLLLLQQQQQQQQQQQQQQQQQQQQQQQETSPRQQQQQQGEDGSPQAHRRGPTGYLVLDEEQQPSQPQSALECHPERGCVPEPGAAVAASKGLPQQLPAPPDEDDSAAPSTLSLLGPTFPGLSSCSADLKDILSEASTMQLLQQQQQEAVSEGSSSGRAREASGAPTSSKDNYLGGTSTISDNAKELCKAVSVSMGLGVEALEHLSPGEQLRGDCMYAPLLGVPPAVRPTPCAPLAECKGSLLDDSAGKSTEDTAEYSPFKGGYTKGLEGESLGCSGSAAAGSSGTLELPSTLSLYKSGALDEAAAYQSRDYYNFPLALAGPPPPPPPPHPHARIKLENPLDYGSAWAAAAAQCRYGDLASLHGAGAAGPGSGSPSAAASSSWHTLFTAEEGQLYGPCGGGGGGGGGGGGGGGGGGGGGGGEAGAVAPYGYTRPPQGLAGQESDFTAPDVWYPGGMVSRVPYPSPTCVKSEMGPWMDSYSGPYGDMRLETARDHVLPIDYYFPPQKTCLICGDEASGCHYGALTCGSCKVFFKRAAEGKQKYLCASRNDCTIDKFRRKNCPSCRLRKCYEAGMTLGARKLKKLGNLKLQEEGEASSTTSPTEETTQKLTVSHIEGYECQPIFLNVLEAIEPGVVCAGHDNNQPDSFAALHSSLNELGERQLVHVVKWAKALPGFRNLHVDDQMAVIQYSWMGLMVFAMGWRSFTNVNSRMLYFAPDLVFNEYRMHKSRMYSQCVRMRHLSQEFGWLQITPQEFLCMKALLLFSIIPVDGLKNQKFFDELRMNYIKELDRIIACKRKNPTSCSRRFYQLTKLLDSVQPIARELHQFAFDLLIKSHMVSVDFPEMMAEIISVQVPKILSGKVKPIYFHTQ
Protocol: Degradation of Androgen Receptor dual T878A/L702H mutant protein in human MDA PCa 2b (ATCC, #CRL-2422) cells treated with PROTACs was quantified using the HTRF Human Androgen Receptor Detection Kit (PerkinElmer, #64ANDRPEH) in 384 well assay plate format. 10 mM DMSO(Sigma-Aldrich, #472301) stock solutions of PROTACs were prepared and diluted across an 11 concentration, 3-fold increment range, and 25 nL dispensed into a white opaque bottomed 384 well assay plate (Thermofisher, #164610) using an acoustic ECHO dispenser (Labcyte). Cells were cultured in growth medium (BRFF-HPC-1 (Athena ES, #0403) supplemented with 20% FBS (Gibco, #10099-141), penicillin 50 U/mL and streptomycin 50 ug/mL (Gibco, #15140-122)) in collagen I or poly-D-lysine coated T175 flasks (Corning, #356487 or #356539, respectively). For the assay, cells were harvested from the flask, centrifuged at 200 g for 5 min and then resuspended in the growth medium. 25 μl of cell suspension containing 10,000 cells was dispensed into each well of the assay plate containing the test compounds, which was then incubated for 18 h at 37° C./5% CO2. Control wells were included on each assay plate, with assay medium without cells being the no AR remaining 100% effect control, and cells treated with DMSO vehicle only, without PROTAC, the 0% effect control. After 18 h incubation 8 μl of supplemented lysis buffer from HTRF kit was added to each well and the plate shaken at 500 rpm for 1 h at room temperature. 8 μl of antibody mix in Detection buffer from HTRF kit was added to each well and the plate was incubated for 2 h in dark at room temperature. The fluorescence was measured at both 620 nm and 665 nm using an excitation wavelength of 337 nm with a PHERAstar microplate reader (BMG Labtech) and the % AR protein remaining in each well was calculated by normalising the HTRF ratio (665 nm signal/620 nm signal) value to the control wells mentioned above. Parameters corresponding to the potency and efficacy estimates of the PROTACs were obtained from these normalised values using curve fitting software (IDBS ActivityBase). These included the DC50 and the Dmax estimates. Two versions of the DC50, called relative DC50 and absolute DC50, were typically generated. These are the inflection point of a fitted 4 parameter sigmoidal response curve and the interpolated concentration of PROTAC corresponding to 50% of the protein being degraded, respectively. The Dmax parameter was the maximum experimentally observed degradation and the asymptote max parameter the fitted response curve asymptote maximum.

[2] = target: T3, Full length Cereblon protein (6His tev Cereblon/6His tev DDB1ΔBPB) (Homo sapiens, UniProt Q96SW2); test: Cereblon Binding Assay (TR-FRET); settings: 5 nM protein, 50 nM Alexa647-lenalidomide ligand, read-out: Mean pIC50 (converted)
T3 construct: Full length Cereblon protein (6His tev Cereblon/6His tev DDB1ΔBPB) was expressed and purified from E. coli; made in house; host or cells: E. coli
T3 sequence (Q96SW2 whole entry, stated change not applied): as the sequence (Q96SW2 whole entry partner) above
Protocol: Full length Cereblon protein (6His tev Cereblon/6His tev DDB1ΔBPB) was expressed and purified from E. coli to monitor compound binding. […] A Thermo Scientific Multidrop Combi was used to dispense 5 μL of 10 nM protein in assay buffer of 50 mM
HEPES, 150 mM NaCl, 5% glycerol, 1 mM DTT and 1 mM CHAPS, pH 7.4, in the presence of 100 nM fluorescent ligand (Final assay concentrations of 5 nM protein and 50 nM ligand). After equilibrating for 15 min in the dark at room temperature a 5 μL addition was made of 2 nM europium chelate labelled anti-6His antibody (Perkin Elmer, W1024, AD0111) in assay buffer (1 nM FAC). […] TR-FRET ratio data was normalised to high (DMSO) and low (reaction in the absence of protein) controls and pIC50 values determined for each of the compounds tested by fitting the fluorescence ratio data to a four parameter model:
[formula] • where ‘a’ is the minimum, ‘b’ is the maximum, ‘c’ is the pIC50 and ‘d’ is the Hill slope.

| Dmax (Androgen Receptor) | Dmax [1] | IC50 [2] | Compound |
| --- | --- | --- | --- |
| ≥ 50% | ≥ 55% |  | CC1(C)[C@H](NC(=O)c2cnc(N3CCC(C(=O)N4CCC(n5ccc6c(N7CCC(=O)NC7=O)cccc65)CC4)CC3)nc2)C(C)(C)[C@H]1Oc1ccc(C#N)c(Cl)c1 [AR67, N-((1r,3r)-3-(3-Chloro-4-cyanophenoxy)-2,2,4,4-tetramethylcyclobutyl)-2-(4-(4-(4-(2,4-dioxotetrahydropyrimidin-1(2H)-yl)-1H-indol-1-yl)piperidine-1-carbonyl)piperidin-1-yl)pyrimidine-5-carboxamide] |
| ≥ 50% | ≥ 55% |  | CC1(C)[C@H](NC(=O)c2ccc(N3CCC(CN4CCC(n5ncc6c(N7CCC(=O)NC7=O)cccc65)CC4)CC3)nn2)C(C)(C)[C@H]1Oc1ccc(C#N)c2ncccc12 [AR246, N-((1r,3r)-3-((8-Cyanoquinolin-5-yl)oxy)-2,2,4,4-tetramethylcyclobutyl)-6-(4-((4-(4-(2,4-dioxotetrahydropyrimidin-1(2H)-yl)-1H-indazol-1-yl)piperidin-1-yl)methyl)piperidin-1-yl)pyridazine-3-carboxamide] |
| ≥ 50% |  | ≤ 1000 nM | N#Cc1ccc(O[C@H]2CC[C@H](NC(=O)c3ccc(N4CCC(CN5CCC(n6ccc7c(N8CCC(=O)NC8=O)cccc76)C(F)(F)C5)CC4)nn3)CC2)cc1Cl (single isomer, unassigned) [EAR162, N-((1r,4r)-4-(3-Chloro-4-cyanophenoxy)cyclohexyl)-6-(4-((4-(4-(2,4-dioxotetrahydropyrimidin-1(2H)-yl)-1H-indol-1-yl)-3,3-difluoropiperidin-1-yl)methyl)piperidin-1-yl)pyridazine-3-carboxamide] |
| ≥ 50% | ≥ 55% |  | CC1(C)[C@H](NC(=O)c2ccc(CCCCCCN3CCC(n4ccc5c(N6CCC(=O)NC6=O)cccc54)CC3)cc2)C(C)(C)[C@H]1Oc1ccc(C#N)c(C(F)(F)F)c1 [EAR75, N-((1r,3r)-3-(4-Cyano-3-(trifluoromethyl)phenoxy)-2,2,4,4-tetramethylcyclobutyl)-4-(6-(4-(4-(2,4-dioxotetrahydropyrimidin-1(2H)-yl)-1H-indol-1-yl)piperidin-1-yl)hexyl)benzamide] |
| ≥ 50% | ≥ 55% |  | CC1(C)[C@H](NC(=O)c2cnc(N3CCC(CN4CCC(n5ccc6c(N7CCC(=O)NC7=O)cncc65)CC4)CC3)cn2)C(C)(C)[C@H]1Oc1ccc(C#N)c(Cl)c1 [AR14, N-((1r,3r)-3-(3-Chloro-4-cyanophenoxy)-2,2,4,4-tetramethylcyclobutyl)-5-(4-((4-(4-(2,4-dioxotetrahydropyrimidin-1(2H)-yl)-1H-pyrrolo[2,3-c]pyridin-1-yl)piperidin-1-yl)methyl)piperidin-1-yl)pyrazine-2-carboxamide] |
| ≥ 50% |  | ≤ 1000 nM | N#Cc1ccc(O[C@H]2CC[C@H](NC(=O)c3ccc(N4CCCC(CN5CCC(n6ccc7c(N8CCC(=O)NC8=O)cccc76)CC5)C4)nn3)CC2)cc1Cl (mixture of isomers) [EAR73, rac-N-((1r,4r)-4-(3-Chloro-4-cyanophenoxy)cyclohexyl)-6-(3-((4-(4-(2,4-dioxotetrahydropyrimidin-1(2H)-yl)-1H-indol-1-yl)piperidin-1-yl)methyl)piperidin-1-yl)pyridazine-3-carboxamide] |
|  | ≥ 55% |  | CC1(C)[C@H](NC(=O)c2ccc(N3CCC(CN4CCC(n5ncc6c(N7CCC(=O)NC7=O)cccc65)CC4)CC3)nc2)C(C)(C)[C@H]1Oc1ccc(C#N)c2ncccc12 [AR261, N-((1r,3r)-3-((8-Cyanoquinolin-5-yl)oxy)-2,2,4,4-tetramethylcyclobutyl)-6-(4-((4-(4-(2,4-dioxotetrahydropyrimidin-1(2H)-yl)-1H-indazol-1-yl)piperidin-1-yl)methyl)piperidin-1-yl)nicotinamide hydrochloride] |
|  |  | 25.1 nM | CCn1ccc2c(N3CCC(=O)NC3=O)cncc21 [ECB51, 1-(1-Ethyl-1H-pyrrolo[2,3-c]pyridin-4-yl)dihydropyrimidine-2,4(1H,3H)-dione] |
| ≥ 50% |  | ≤ 1000 nM | CC1(C)[C@H](NC(=O)c2ccc(N3CCC(CN4CCC(n5ncc6c(N7CCC(=O)NC7=O)cccc65)CC4)CC3)nn2)C(C)(C)[C@H]1Oc1cnc(C#N)c(Cl)c1 [EAR249, N-((1r,3r)-3-((5-Chloro-6-cyanopyridin-3-yl)oxy)-2,2,4,4-tetramethylcyclobutyl)-6-(4-((4-(4-(2,4-dioxotetrahydropyrimidin-1(2H)-yl)-1H-indazol-1-yl)piperidin-1-yl)methyl)piperidin-1-yl)pyridazine-3-carboxamide hydrochloride] |

| Compound | Dmax (Androgen Receptor) | Dmax [1] | IC50 [2] |
| --- | --- | --- | --- |
| CC1(C)[C@H](NC(=O)c2ccc(N3CCC(CN4CCC(n5ccc6c(N7CCC(=O)NC7=O)cccc65)CC4)CC3)nc2)C(C)(C)[C@H]1Oc1ccc(C#N)c(Cl)c1 [EAR29, N-((1r,3r)-3-(3-chloro-4-cyanophenoxy)-2,2,4,4-tetramethylcyclobutyl)-6-(4-((4-(4-(2,4-dioxotetrahydropyrimidin-1(2H)-yl)-1H-indol-1-yl)piperidin-1-yl)methyl)piperidin-1-yl)nicotinamide formate] | ≥ 50% | ≥ 55% |  |

— patent US20250205344A1, “2,4-DIOXOTETRAHYDROPYRIMIDINYL DERATIVES AS DEGRONS IN PROTACS” (GLAXOSMITHKLINE INTELLECTUAL PROPERTY DEVELOPMENT LIMITED, priority 2022, published 2025)
